Measurements reported in paper PMC11904707, “Cyclization of Two Antimicrobial Peptides Improves Their Activity” (ACS Omega, 2025).
In brackets after ≈: the same amount, converted by molar mass. Where two headings read alike, the source gives them in different places. Peptide text beside a SMILES is read from it.

Assays:
[1] = system: Pseudomonas aerginosa (PA231, PA235, PA239, PA249); test: MIC growth inhibition assay, Pseudomonas aeruginosa clinical isolates; format: cell-based; conditions: average of four strains, MHB2, 18 h, 37 °C, A570 growth curves
Protocol: (§1) Bacterial clinical isolates used for initial screening were anonymously provided by the clinical microbiology laboratory of the University of Pittsburgh Medical Center (UPMC). Bacteria were stored at −80 °C and typically retrieved by obtaining single colonies on agar plates prior to subsequent liquid broth culture. Suspensions of test bacteria were prepared from the log phase of growth by diluting overnight cultures at 1:100 with fresh cation-adjusted Mueller–Hinton Broth (MHB2) and incubating for an additional 3–4 h. Bacteria were spun at 3000 g for 10 min. The pellet was resuspended in Test Condition Media to determine bacterial turbidity using a Den-1B densitometer (Grant Instruments, Beaver Falls, PA) at 0.5 McFarland units corresponding to 10^8 CFU/mL.
(§2) To examine antibacterial activity, we used minor modifications of a standard growth inhibition assay endorsed by the Clinical and Laboratory Standards Institute (CLSI), as previously described.[13] Bacteria were incubated with each of the indicated peptides in MHB2. The bacterial cells were kept in an incubator for 18 h at 37 °C, which is linked to a robotic system that feeds a plate reader every hour with one of 8 × 96-well plates. The 96-well plates are standard flat-bottom microliter plates purchased from Thermo Fisher (Waltham, MA). This setup allows the collection of growth kinetic data at A 570 (absorbance at 570 nm) to examine growth inhibition in real-time (BioTek Instruments, Winooski, VT). […] The assays are typically repeated a second time. If the MIC differs from the first assay, a third experimental trial is performed to confirm the MIC.

[2] = system: Acinetobacter baumannii (AB78, AB83, AB273, AB275); test: microbe, parasite or virus in culture; format: cell-based
Protocol: as §1, §2

[3] = system: Escherichia coli (EC541, EC543, EC546, EC549); test: microbe, parasite or virus in culture; format: cell-based
Protocol: as §1, §2

[4] = system: Klebsiella pneumoniae (KP106, KP506, KP542, KP550); test: microbe, parasite or virus in culture; format: cell-based
Protocol: as §1, §2

[5] = system: Staphylococcus aureus (SA703, SA722, SA729); test: microbe, parasite or virus in culture; format: cell-based
Protocol: as §1, §2

[6] = system: Enterobacter (EA62, EC544, EC547, EA1042); test: MIC growth inhibition assay, Enterobacter clinical isolates; format: cell-based; conditions: average of four strains, MHB2, 18 h, 37 °C, A570 growth curves, read-out: MIC G(−) Entbac
Protocol: as §1, §2

[7] = system: G(−) bacteria (five species); test: MIC growth inhibition assay, average over G(−) species; format: cell-based; conditions: average of the average MICs of five G(−) species, ± spread
Protocol: as §1, §2

[8] = system: Enterococci (EF500, EF678, EF679, EF787); test: organism not typed; format: cell-based; conditions: read-out: MIC G(+) Entcoc
Protocol: as §1, §2

[9] = system: G(+) bacteria (two species); test: MIC growth inhibition assay, average over G(+) species; format: cell-based; conditions: average of the average MICs of two G(+) species, ± spread
Protocol: as §1, §2

[10] = system: Staphylococcus hemolyticus 730; test: microbe, parasite or virus in culture; format: cell-based; conditions: for MIC after 1-Hr AB incubation / MIC after 1-Hr NE digestion / MIC after 4-Hr AB incubation / MIC after 4-Hr NE digestion: pH 8; for MIC: then MIC vs Staphylococcus hemolyticus 730
Protocol: One motivation in designing linear or cyclic AMPs is to prevent proteolytic degradation that can occur with helical peptides. […] Linezolid, a conventional antibiotic was included for comparison.
as §2
The neutrophil elastase was dissolved in 200 mmol/L Tris buffer, pH 8.8, and used at a molar ratio of 1:50 with the peptide in 200 mM ammonium bicarbonate pH 8.0 for 1 or 4 h. The control experiment incubated the peptides alone in 200 mmol/L ammonium bicarbonate for 1 or 4 h. Upon completion of the incubations, the peptides were serially diluted to test MIC. 50% (v/v) MHB2 was added to the plates. MIC was determined as described above.

[11] = system: human red blood cells (RBCs); conditions: cited from earlier work
From the text: Table 2 Antibacterial Activity and Toxicity of CE-03, LE-53, CE-05 and LE-55 Peptides ^a | column: % toxicity / RBC || The secondary structure of AMPs as they encounter membranes may correlate with their toxicity; it has long been thought that helical peptides are more toxic to eukaryotic cells than nonhelical peptides. Our group has found a positive correlation between helicity and toxicity for WLBU2,[18] the E2-peptides,[28] and SPLUNC1-derived antimicrobial peptides.[34] We have also seen the converse, that nonhelical peptides are nontoxic,[18],[26] supporting the positive correlation between helicity and toxicity. Several literature studies have also found a correlation between α-helicity and toxicity to e ...

[12] = average of four strains, MHB2, 18 h, 37 °C, A570 growth curves
[13] = EC541, EC543, EC546, EC549, 18 h
[14] = KP106, KP506, KP542, KP550, 18 h

For `NC[C@H]1O[C@H](O[C@H]2[C@H](O)[C@@H](O[C@H]3O[C@H](CO)[C@@H](O)[C@H](N)[C@H]3O)[C@H](N)C[C@@H]2N)[C@H](N)C[C@@H]1O` [tobramycin], the MIC ([1]; Pseudomonas) was 32 µM (≈ 15 µg/mL), the MIC ([2]; Acinetobacter baumannii, average of four strains, MHB2, 18 h, 37 °C, A570 growth curves) was 32 µM (≈ 15 µg/mL) and the MIC ([3]; Escherichia coli, average of four strains, MHB2, 18 h, 37 °C, A570 growth curves) was 28 µM (≈ 13.1 µg/mL). For the same compound, the MIC ([4]; Klebsiella pneumoniae, average of four strains, MHB2, 18 h, 37 °C, A570 growth curves) was 2.1 µM (≈ 0.982 µg/mL), the MIC ([5]; Staphylococcus aureus, average of strains SA703, SA722, SA729, MHB2, 18 h, 37 °C, A570 growth curves) was 13.1 µM (≈ 6.12 µg/mL) and the MIC ([6]; Enterobacter) was 24.5 µM (≈ 11.5 µg/mL). The MIC [7] was 23.7 ± 3.4 µM (≈ 11.1 µg/mL), the MIC [8, 12] was 25 µM (≈ 11.7 µg/mL) and the MIC [9] was 19 ± 1 µM (≈ 8.88 µg/mL).
For `CC(C)[C@@H]1NC(=O)[C@H](Cc2c[nH]c3ccccc23)NC(=O)[C@H](Cc2c[nH]c3ccccc23)NC(=O)[C@H](Cc2c[nH]c3ccccc23)NC(=O)[C@H](Cc2c[nH]c3ccccc23)NC(=O)[C@H](CCCNC(=N)N)NC(=O)[C@H](CCCNC(=N)N)NC(=O)[C@H](CCCNC(=N)N)NC(=O)[C@H](CCCNC(=N)N)NC(=O)[C@H](CCCNC(=N)N)NC(=O)[C@H](CCCNC(=N)N)NC(=O)[C@H](C(C)C)NC1=O` [CE-03] (cyclo(RRRRRRWWWWVV)), the MIC [1] was 7.1 µM (≈ 13.3 µg/mL), the MIC ([2]; AB78, AB83, AB273, AB275, 18 h) was 2.2 µM (≈ 4.14 µg/mL) and the MIC [3, 13] was 1.5 µM (≈ 2.82 µg/mL). The MIC [4, 14] was 8.2 µM (≈ 15.4 µg/mL), the MIC ([5]; SA703, SA722, SA729, 18 h) was 2.3 µM (≈ 4.32 µg/mL) and the MIC [6] was 3.7 µM (≈ 6.96 µg/mL). The “MIC G(−) average” value [7] was 4.6 ± 1.3 µM (≈ 8.65 µg/mL), the MIC ([8]; 18 h) was 0.9 µM (≈ 1.69 µg/mL) and the “MIC G(+) average” value [9] was 1.6 ± 0.7 µM (≈ 3.01 µg/mL). The “MIC after 1-Hr AB incubation” value [10] was 1.0 ± 0.0 µM (≈ 1.88 µg/mL), the “MIC after 1-Hr NE digestion” value [10] was 1.5 ± 0.7 µM (≈ 2.82 µg/mL) and the “MIC after 4-Hr AB incubation” value [10] was 1.0 ± 0 µM (≈ 1.88 µg/mL). The “MIC after 4-Hr NE digestion” value [10] was 1.0 ± 0 µM (≈ 1.88 µg/mL).
With `CC(C)[C@H](NC(=O)[C@@H](NC(=O)[C@H](Cc1c[nH]c2ccccc12)NC(=O)[C@H](Cc1c[nH]c2ccccc12)NC(=O)[C@H](Cc1c[nH]c2ccccc12)NC(=O)[C@H](Cc1c[nH]c2ccccc12)NC(=O)[C@H](CCCNC(=N)N)NC(=O)[C@H](CCCNC(=N)N)NC(=O)[C@H](CCCNC(=N)N)NC(=O)[C@H](CCCNC(=N)N)NC(=O)[C@H](CCCNC(=N)N)NC(=O)[C@@H](N)CCCNC(=N)N)C(C)C)C(=O)O` [LE-53] (H-RRRRRRWWWWVV-OH) the “MIC after 1-Hr AB incubation” value [10] was 2.0 ± 0 µM (≈ 3.8 µg/mL), the “MIC after 1-Hr NE digestion” value [10] was 2.0 ± 0 µM (≈ 3.8 µg/mL) and the “MIC after 4-Hr AB incubation” value [10] was 3.0 ± 1.4 µM (≈ 5.69 µg/mL). For the same compound, the “MIC after 4-Hr NE digestion” value [10] was 1.5 ± 0.7 µM (≈ 2.85 µg/mL) and the “toxicity (in words)” value [11] was “nontoxic”.
For `CC(=O)NC[C@H]1CN(c2ccc(N3CCOCC3)c(F)c2)C(=O)O1` [linezolid], the MIC ([10]; control: peptide alone in 200 mmol/L ammonium bicarbonate pH 8.0, 1 h, read-out: MIC after 1-Hr AB incubation) was > 16 µM, the MIC ([10]; control: peptide alone in 200 mmol/L ammonium bicarbonate pH 8.0, 4 h, read-out: MIC after 4-Hr AB incubation) was > 16 µM and the MIC ([10]; human neutrophil elastase, molar ratio 1:50 with peptide, 200 mM ammonium bicarbonate pH 8.0, 1 h, read-out: MIC after 1-Hr NE digestion) was > 16 µM. For the same compound, the MIC ([10]; human neutrophil elastase, molar ratio 1:50 with peptide, 200 mM ammonium bicarbonate pH 8.0, 4 h, read-out: MIC after 4-Hr NE digestion) was > 16 µM.
Compound `CC(C)[C@@H]1NC(=O)[C@H](Cc2c[nH]c3ccccc23)NC(=O)[C@H](Cc2c[nH]c3ccccc23)NC(=O)[C@H](Cc2c[nH]c3ccccc23)NC(=O)[C@H](Cc2c[nH]c3ccccc23)NC(=O)[C@H](CCCNC(=N)N)NC(=O)[C@H](CCCNC(=N)N)NC(=O)[C@H](CCCNC(=N)N)NC(=O)[C@H](CCCNC(=N)N)NC(=O)[C@H](CCCNC(=N)N)NC(=O)[C@H](CCCNC(=N)N)NC(=O)[C@H](CCCNC(=N)N)NC(=O)[C@H](CCCNC(=N)N)NC(=O)[C@H](C(C)C)NC(=O)[C@H](C(C)C)NC(=O)[C@H](C(C)C)NC1=O` [CE-05] (cyclo(RRRRRRRRWWWWVVVV)) has an MIC [1] of 6.1 µM (≈ 14.6 µg/mL), an MIC ([2]; AB78, AB83, AB273, AB275, 18 h) of 1.1 µM (≈ 2.63 µg/mL) and an MIC [3, 13] of 2.5 µM (≈ 5.98 µg/mL). For the same compound, the MIC [4, 14] was 6.7 µM (≈ 16 µg/mL), the MIC ([5]; SA703, SA722, SA729, 18 h) was 1.0 µM (≈ 2.39 µg/mL) and the MIC [6] was 3.2 µM (≈ 7.65 µg/mL). For the same compound, the “MIC G(−) average” value [7] was 3.9 ± 1.1 µM (≈ 9.32 µg/mL), the “MIC after 1-Hr AB incubation” value [10] was 6.0 ± 2.8 µM (≈ 14.3 µg/mL) and the “MIC after 1-Hr NE digestion” value [10] was 3.0 ± 1.4 µM (≈ 7.17 µg/mL). The “MIC after 4-Hr AB incubation” value [10] was 4.0 ± 0 µM (≈ 9.56 µg/mL) and the “MIC after 4-Hr NE digestion” value [10] was 3.0 ± 1.4 µM (≈ 7.17 µg/mL).
In the case of colistin, the MIC [1] is reported as 8.4 µM, the MIC [2, 12] is reported as 0.5 µM and the MIC [3, 12] is reported as 4.3 µM. For the same compound, the MIC [4, 12] was 0.7 µM, the MIC ([5]; average of strains SA703, SA722, SA729, MHB2, 18 h, 37 °C, A570 growth curves) was 64.0 µM and the MIC [6] was 12.1 µM. For the same compound, the “MIC G(−) average” value [7] was 5.2 ± 4.3 µM, the MIC [8, 12] was 32.0 µM and the “MIC G(+) average” value [9] was 48.0 ± 23.0 µM.
In the case of `CC(C)[C@H](NC(=O)[C@@H](NC(=O)[C@@H](NC(=O)[C@@H](NC(=O)[C@H](Cc1c[nH]c2ccccc12)NC(=O)[C@H](Cc1c[nH]c2ccccc12)NC(=O)[C@H](Cc1c[nH]c2ccccc12)NC(=O)[C@H](Cc1c[nH]c2ccccc12)NC(=O)[C@H](CCCNC(=N)N)NC(=O)[C@H](CCCNC(=N)N)NC(=O)[C@H](CCCNC(=N)N)NC(=O)[C@H](CCCNC(=N)N)NC(=O)[C@H](CCCNC(=N)N)NC(=O)[C@H](CCCNC(=N)N)NC(=O)[C@H](CCCNC(=N)N)NC(=O)[C@@H](N)CCCNC(=N)N)C(C)C)C(C)C)C(C)C)C(=O)O` [LE-55] (H-RRRRRRRRWWWWVVVV-OH), the “MIC after 1-Hr AB incubation” value [10] is reported as 16.0 ± 0 µM (≈ 38.5 µg/mL), the “MIC after 1-Hr NE digestion” value [10] is reported as 3.0 ± 1.4 µM (≈ 7.23 µg/mL) and the “MIC after 4-Hr AB incubation” value [10] is reported as 6.0 ± 2.8 µM (≈ 14.5 µg/mL). For the same compound, the “MIC after 4-Hr NE digestion” value [10] was 3.0 ± 1.4 µM (≈ 7.23 µg/mL) and the “toxicity (in words)” value [11] was “nontoxic”.
